The source of these data is patent publication US5741790A, “Azetidines” (Pfizer Inc., priority 1996, dated 1998).

One test deals with T1, human NK2 receptor (Homo sapiens, UniProt P21452).
T1 construct: expressed in transfected cells; host or cells: Chinese hamster ovary (CHO) cells, membranes
T1 sequence (P21452 1-398): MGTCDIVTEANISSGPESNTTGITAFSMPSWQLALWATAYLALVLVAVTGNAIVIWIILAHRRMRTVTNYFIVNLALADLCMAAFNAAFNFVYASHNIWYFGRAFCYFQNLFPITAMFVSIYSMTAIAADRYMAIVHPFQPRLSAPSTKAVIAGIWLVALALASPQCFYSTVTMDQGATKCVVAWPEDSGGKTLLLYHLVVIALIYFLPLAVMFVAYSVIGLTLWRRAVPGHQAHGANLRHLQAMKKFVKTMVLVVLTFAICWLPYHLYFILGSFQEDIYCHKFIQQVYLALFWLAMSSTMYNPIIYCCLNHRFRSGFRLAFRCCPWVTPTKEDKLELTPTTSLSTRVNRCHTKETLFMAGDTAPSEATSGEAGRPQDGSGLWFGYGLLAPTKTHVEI
Put plainly: NK2 receptor binding: competition with [3H] or [125I]NKA for binding to CHO cell membranes expressing cloned human NK2 receptor. To be noted: membranes of Chinese hamster ovary cells expressing cloned human NK2 receptor, 90 min, 25° C., read-out: plC50, NK2 receptor binding activity (converted). On the procedure: The affinity of the compounds of formula (I) and their salts for the human NK2 receptor can be tested in vitro by testing their ability to compete with [^3 H] or […] (neurokinin A) for binding to membranes prepared from Chinese hamster ovary cells expressing the cloned human NK2 receptor. In this method, washed Chinese hamster ovary cell membranes are prepared as described for the previous method where IM9 cells are used instead. The membranes are incubated (90 min, 25° C.) with [^3 H] or [^125 I] NKA and with a range of concentrations of the test compound. Non-specific binding was determined in the presence of 10μM NKA.

For the next test, the target named is T2, NK2 receptor (Oryctolagus cuniculus, UniProt P79218).
T2 construct: in the rabbit pulmonary artery; from tissue; host or cells: rabbit pulmonary artery
T2 sequence (P79218 1-384): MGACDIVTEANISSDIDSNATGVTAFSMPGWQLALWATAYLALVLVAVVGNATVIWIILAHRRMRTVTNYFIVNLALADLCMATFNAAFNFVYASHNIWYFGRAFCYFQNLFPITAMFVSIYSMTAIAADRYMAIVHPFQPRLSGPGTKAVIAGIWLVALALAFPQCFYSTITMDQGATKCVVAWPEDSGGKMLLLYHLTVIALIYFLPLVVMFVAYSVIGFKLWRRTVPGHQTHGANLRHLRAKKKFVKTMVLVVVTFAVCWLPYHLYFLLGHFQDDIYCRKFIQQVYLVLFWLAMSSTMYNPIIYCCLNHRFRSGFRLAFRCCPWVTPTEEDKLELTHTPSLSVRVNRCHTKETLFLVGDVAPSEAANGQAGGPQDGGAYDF
The test can be described thus: NK2 receptor antagonist activity in vitro: antagonism of contractile effects of [βAla8]NKA(4-10) in rabbit pulmonary artery (Patacchini and Maggi). It counts as biochemical. The note with it: agonist [βAla8]NKA(4-10), read-out: pA2, NK2 receptor antagonist activity (converted). The text has this: The NK2 receptor antagonist activity of the compounds of the formula (I) can be tested, in vitro, by testing their ability to antagonise the contractile effects of the selective NK2 receptor agonist [βAla^8 ]NKA(4-10) in the rabbit pulmonary artery, using the method of Patacchini and Maggi, Eur. J. Pharmacol., 236, 31-37 (1993).

As for `NS(=O)(=O)N1CCN(C2CN(CC[C@]3(c4ccc(Cl)c(Cl)c4)CCC(=O)N(CC4CCCCC4)C3=O)C2)CC1` [Example 3, 3(S)-3-(2-(3-(4-Aminosulphonylpiperazin-1-yl)azetidin-1-yl)ethyl)-1-cyclohexylmethyl-3-(3,4-dichlorophenyl)glutarimide], the IC50 on human NK2 receptor is 0.501 nM. In addition, on NK2 receptor, the Kb was 7.94 nM.
